Tests used:
[1] = system: A549 cells; assay: Glucose uptake by A549 cells under increased extracellular glucose (FIG. 2B); format: cell-based; details: DMEM:F-12 (315 mg glucose/dL), increasing concentrations of T12, 14 h
Procedure: (§1) FIG. 2. […] A, A549 cells were cultured in DMEM plus 10% fetal bovine serum and penicillin/streptomycin with the indicated concentrations of glucose during 24 h. Then cells were lysed in 25 mM Tris-HCl pH 7.5, 150 mM NaCl, 1% Triton X-100, 0.1% SDS, 1 mM PMSF, 10 μg/mL leupeptin, 20 mM NaF at 4° C. during 30 min. Lysates were cleared by centrifugation at 16,000×g for 5 min (4° C.) and the protein concentration of supernatants was determined (Bio-Rad). […] Development was performed with Amersham ECL Prime Western Blotting Detection Reagent (GE Healthcare Lifesciences) and image acquisition with an ImageQuant LAS 4000 Mini device (GE Healthcare Lifesciences). […] After incubations cells were lysed as in A and protein concentrations in supernatants were similarly assessed. Glucose concentrations in the media were determined at the beginning and at the end of the incubation period with a Glucocard G+ meter (Arkray Factory, Inc.), and glucose uptake by cells was calculated using the protein concentrations of the corresponding lysates for normalization purposes.
(§2) A, A549 cells were cultured in DMEM plus 10% fetal bovine serum and penicillin/streptomycin with the indicated concentrations of glucose during 24 h. […] Lysates were cleared by centrifugation at 16,000×g for 5 min (4° C.) and the protein concentration of supernatants was determined (Bio-Rad). […]

[2] = system: AS160 protein phosphorylated at Ser 318 (P Ser 318 AS160); assay: Western blot for AS160 phosphorylated at Ser 318 in A549 lysates (FIG. 2C); format: cell-based; details: A549 cells, DMEM:F-12 (315 mg glucose/dL), T12 50 μM, 20 h
Procedure: as §1, §2

[3] = system: C2Cl2 mouse myoblasts differentiated to myotubes; assay: Glucose concentration in media of C2Cl2 myotubes at physiological glucose (FIG. 3); format: cell-based; details: initial glucose 115 mg/dL, T12 50 μM, indicated times
Procedure: C2Cl2 mouse myoblasts were differentiated to myotubes in DMEM supplemented with 2% horse serum and penicillin/streptomycin during 10 days, and then incubated in DMEM plus 0.25% horse serum with an initial glucose concentration of 115 mg/dL, in absence or presence of T12 (50 μM) during the indicated times. Glucose concentrations in media were determined with a Glucocard™ G+ meter (Arkray Factory, Inc.). Shown are means±SEM (n=2). […] C2Cl2 mouse myoblasts were differentiated to myotubes in DMEM supplemented with 2% horse serum and penicillin/streptomycin during 10 days, and then incubated in DMEM plus 0.25% horse serum with an initial glucose concentration of 115 mg/dL, in absence or presence of T12 (50 μM) during the indicated times. Glucose concentrations in media were determined with a Glucocard™ G+ meter (Arkray Factory, Inc.). Shown are means±SEM (n=2).

[4] = target: T1, GPBP (Homo sapiens, UniProt Q9Y5P4); details: from WO 2004/070025, WO 2011/054530, U.S. Pat. No. 8,586,776, WO2014/006020; cited from earlier work
T1 sequence (Q9Y5P4 1-624): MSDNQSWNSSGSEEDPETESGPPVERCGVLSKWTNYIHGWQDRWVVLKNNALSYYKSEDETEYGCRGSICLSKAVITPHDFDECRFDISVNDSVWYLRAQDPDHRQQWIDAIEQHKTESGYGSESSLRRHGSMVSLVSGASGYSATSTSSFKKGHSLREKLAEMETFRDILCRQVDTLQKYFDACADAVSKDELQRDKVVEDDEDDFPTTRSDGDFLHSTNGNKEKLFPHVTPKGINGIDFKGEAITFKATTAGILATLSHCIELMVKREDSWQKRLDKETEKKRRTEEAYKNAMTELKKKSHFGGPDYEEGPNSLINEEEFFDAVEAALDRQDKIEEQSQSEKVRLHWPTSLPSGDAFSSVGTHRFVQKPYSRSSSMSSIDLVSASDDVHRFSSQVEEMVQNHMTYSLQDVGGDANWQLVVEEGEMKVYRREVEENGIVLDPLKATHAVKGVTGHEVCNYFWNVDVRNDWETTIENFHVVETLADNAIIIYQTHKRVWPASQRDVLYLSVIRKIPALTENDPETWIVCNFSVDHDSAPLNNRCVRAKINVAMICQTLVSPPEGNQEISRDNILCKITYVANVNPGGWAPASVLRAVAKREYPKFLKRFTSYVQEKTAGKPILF

Molecule	glucose uptake [1]	phosphorylation of AS160 (Ser 318) [2]	extracellular glucose levels [3]	inhibition of GPBP kinase activity [4]
COc1ccc(-c2ccc(-c3cccc(C)c3)c(C)c2)c(CCC(=O)O)c1 [T12, 3-[4″-methoxy-3,2′-dimethyl-(1,1′;4′,1″)terphenyl-2″-yl]propionic acid]	progressively enhanced glucose uptake	induced phosphorylation of AS160	reduced the extracellular glucose levels in a concentration-dependent manner	–
COc1cccc2c1C(=O)c1c(O)c3c(c(O)c1C2=O)C[C@@](O)(C(=O)CO)C[C@@H]3O[C@H]1C[C@H](N)[C@H](O)[C@H](C)O1 [doxorubicin]	–	–	–	inhibit GPBP kinase activity
Q2: isolated peptide representing 260SHCIE264 and flanking regions (LATLSHCIELMVKR) (SEQ ID NO: 8)	–	–	–	efficiently inhibited GPBP kinase activity

— US20170204197A1, “Goodpasture Antigen Binding Protein Detection and Inhibition and its Use in Diabetes” (FibroStatin, S.L., priority 2013, published 2017)
